Laboratory results published in US9067898B1, “Isothiazole derivatives as GPR120 agonists for the treatment of type II diabetes” (Janssen Pharmaceutica NV, priority 2014, dated 2015).

Key:
[1] = target: T1, short form of the GPR120 receptor (GPR120S) (Homo sapiens, UniProt Q5NUL3); test: Human GPR120 DiscoveRx PathHunter Beta-Arrestin assay, Procedure β-arrestin B; type: cell-based; conditions: PathHunter CHO-K1 GPR120S β-Arrestin cell line, 5000 cells/well, read-out: hGPR120 β-arrestin B EC50
T1 construct: host or cells: PathHunter CHO-K1 GPR120S β-Arrestin Cell Line
T1 sequence (P32121 whole entry partner, one chain of several): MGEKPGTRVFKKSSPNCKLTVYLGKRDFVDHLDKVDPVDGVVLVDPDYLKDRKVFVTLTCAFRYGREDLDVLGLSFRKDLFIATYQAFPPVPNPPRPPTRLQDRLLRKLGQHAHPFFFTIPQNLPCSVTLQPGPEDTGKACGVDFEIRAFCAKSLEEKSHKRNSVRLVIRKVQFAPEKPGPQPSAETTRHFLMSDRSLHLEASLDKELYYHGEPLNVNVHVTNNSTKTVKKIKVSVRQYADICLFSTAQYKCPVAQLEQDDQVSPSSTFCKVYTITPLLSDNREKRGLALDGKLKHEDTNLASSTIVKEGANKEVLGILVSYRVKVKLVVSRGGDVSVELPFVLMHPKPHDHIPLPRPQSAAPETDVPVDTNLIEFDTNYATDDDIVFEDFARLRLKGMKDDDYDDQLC
Excerpt: The binding of an agonist (medium/long chain fatty acids or small molecule agonists) to the G-protein-coupled receptor GPR120 activates phospholipase C, leading to release of intracellular Ca^+2 through the generation of inositol 1,4,5-trisphosphate (InsP3 or IP3). GPR120 activation can also trigger intracellular signaling via recruitment of Beta-Arrestin. In the present method, agonist-induced activation of the human GPR120 receptor is monitored through the use of PathHunter CHO-K1 GPR120 Beta-Arrestin Cell Line engineered by DiscoveRx, as detailed below. The cell lines are designed to co-express both the ProLink/Enzyme Donor (PK)-tagged GPCR and the Enzyme […] (EA)-tagged Beta-Arrestin fusion proteins. Upon GPR120 receptor stimulation/activation, the EA-tagged Beta-Arrestin portion is translocated to the tagged receptor, where the two enzyme fragments are brought within close proximity. Under these conditions, these fragments can interact and form an active Beta-gal enzyme complex through Enzyme Fragment Complementation (EFC). This active Beta-gal complex can enzymatically hydrolyse the substrate to produce a detectable light signal; therefore, activation as a function of agonist concentration can be expressed as an EC50 value to determine relative compound activities. This in vitro assay therefore serves to assess compound agonist activity of the GPR120. Procedure β-Arrestin A: In Procedure β-arrestin A, the cell used were PathHunter CHO-K1 GPR120 β-Arrestin Cell Line, expressing the long form of human GPR120 (Genbank accession number NM 181745), with 3000 cells per well. Procedure β-Arrestin B: In Procedure 3-arrestin B the cells used were PathHunter CHO-K1 GPR120S β-Arrestin Cell Line, expressing the short form of the GPR120 receptor (Accession #NM_181745), with 5000 cells/well. Assay Procedure:
The selected CHO-K1 GPR120 β-Arrestin cells were cultured in Ham's F12 media supplemented with 10% fetal bovine serum (FBS), 1% Glutamine, lx p/s, 800 μg/mL G418 and 300 μg/mL Hygromycin B (for selection). Cell stocks were maintained and grown in a sub-confluent state using standard cell culture procedures. The day before the experiment, the cells were harvested with non-enzymatic cell dissociation buffer and re-suspended in complete growth media at the desired concentration. A Corning 384-plate was then seeded with the proper number of cells in a volume of 25 μL, per well. The seeded plates were incubated overnight at 37° C.
On the day of the experiment, the Assay Buffer containing (a) HBSS with Ca^++ and Mg^++, (b) 20 mM HEPES, and (c) 0.1% BSA stabilizer (pH 7.4) was prepared. The growth medium was gently removed from the cell plates and 20 μL of Assay Buffer added to each well. The plate was then incubated at 37° C. for 60 min. Test compounds were serially diluted in Assay Buffer to desired concentrations (more particularly to one or more of the following μM concentrations: 25, 12.5, 6.25, 3.125, 1.5625, 0.78125, 0.390625, 0.1953125, 0.09765625, 0.048828125, 0.024414063, 0.012207031). Five μL of compound dilution was then added to each well and the plate incubated at 37° C. for 90 min. The detection reagents were prepared according to the manufacture's instruction. Twelve μL of the detection reagents were added to each well and the plate incubated at room temperature for 60 min.
The plates were read on an EnVision instrument, using Protocol name: Luminescence, Plate type: 384 Costar, Measurement height: 3 mm, Measurement time: 1 s, Aperture: 384 Plate aperture. The % activity relative to the positive control was calculated using the following equation:
The % Activity values were plotted versus the concentration of test compound and fitted to a sigmoidal dose-response curve with a Hill slope=1 (fixed value) using nonlinear regression with GraphPad Prism 5.0 to calculate the EC50 values. […]

Human GPR120 short form = target: T2, Human GPR120 short form (Homo sapiens, UniProt Q5NUL3); test: Human GPR120 calcium flux assay (FLIPR), Procedure Calcium A; type: cell-based; conditions: HEK-293 cells expressing human GPR120 short form, 2500 cells/well; read-out: GPR120 Ca2+ Assay A EC50
T2 construct: expressed in transfected cells
T2 sequence (Q5NUL3 1-361): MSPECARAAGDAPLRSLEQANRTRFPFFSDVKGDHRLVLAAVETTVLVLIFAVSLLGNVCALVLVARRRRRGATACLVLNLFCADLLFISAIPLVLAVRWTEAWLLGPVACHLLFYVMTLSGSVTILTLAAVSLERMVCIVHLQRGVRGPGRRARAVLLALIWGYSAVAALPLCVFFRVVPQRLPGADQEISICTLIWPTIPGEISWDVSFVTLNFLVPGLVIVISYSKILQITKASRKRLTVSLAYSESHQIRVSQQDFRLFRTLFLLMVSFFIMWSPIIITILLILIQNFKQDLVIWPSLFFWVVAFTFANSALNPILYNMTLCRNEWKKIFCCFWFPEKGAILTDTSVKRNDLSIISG
How it was run: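 HEK293 cells stably expressing the short isoform (NM_001195755.1), 2500/well, starved 1 h, then loaded with Fluo-4 NW plus probenecid (30 min 37 °C, 15 min RT). Compound solutions 0.012–100 μM, 0.2% DMSO final; FLIPR read 300 s after addition. EC50 from Fmax−Fmin fitted to variable-slope sigmoid (Hill <2).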

Compound | EC50 [1] [nM] | EC50 (Human GPR120 short form) [nM]
Cc1ccc(-c2nsc(C(F)(F)F)c2COc2ccc(CCC(=O)O)c(C)c2C)c(F)c1 [Cpd 89, 3-(4-[[3-(2-fluoro-4-methylphenyl)-5-(trifluoromethyl)-1,2-thiazol-4-yl]methoxy]-2,3-dimethylphenyl)propanoic acid] | 416 | 67
CCc1ccc(-c2nsc(C(F)(F)F)c2COc2c(F)cc(CC(C)C(=O)O)cc2F)cc1F (stereo not drawn) [Cpd 212, 3-(4-((3-(4-ethyl-3-fluorophenyl)-5-(trifluoromethyl)isothiazol-4-yl)methoxy)-3,5-difluorophenyl)-2-methylpropanoic acid] | 74 | 600
CC(Cc1ccc(OCc2c(-c3ccc(Cl)cc3)nsc2C(F)(F)F)cc1)C(=O)O (stereo not drawn) [Cpd 195, 3-(4-[[3-(4-chlorophenyl)-5-(trifluoromethyl)-1,2-thiazol-4-yl]methoxy]phenyl)-2-methylpropanoic acid] | 307 | 366
O=C(O)C1CC1c1ccc(OCc2c(-c3ccc(Cl)cc3)nsc2C(F)(F)F)cc1 (stereo not drawn) [Cpd 205, 2-(4-((3-(4-chlorophenyl)-5-(trifluoromethyl)isothiazol-4-yl)methoxy)phenyl)cyclopropanecarboxylic acid] | 741 | 530
3-(4-[[5-chloro-3-(4-chlorophenyl)thiophen-2-yl]methoxy]-2,3-dimethylphenyl) propanoic acid [Cpd 6] | 1940 | 405
COc1ccc(-c2nsc(C(F)(F)F)c2COc2ccc(CCC(=O)O)c(C)c2C)cn1 [Cpd 167, 3-(4-[[3-(6-methoxypyridin-3-yl)-5-(trifluoromethyl)-1,2-thiazol-4-yl]methoxy]-2,3-dimethylphenyl)propanoic acid] | 352 | 222
3-(4-[[5-(4-chlorophenyl)-3-(trifluoromethyl)-1,2-thiazol-4-yl]methoxy]-2-(trifluoromethoxy)phenyl) propanoic acid [Cpd 159] | 819 | 274
Cc1ccc(-c2nsc(C(F)(F)F)c2COc2ccc(CCC(=O)O)c(C)c2C)cc1F [Cpd 109, 3-(4-[[3-(3-fluoro-4-methylphenyl)-5-(trifluoromethyl)-1,2-thiazol-4-yl]methoxy]-2,3-dimethylphenyl)propanoic acid] | 75 | 89
CCc1ccc(-c2nsc(C(F)(F)F)c2COc2c(F)cc(CCC(=O)O)cc2F)cc1F [Cpd 194, 3-(4-((3-(4-ethyl-3-fluorophenyl)-5-(trifluoromethyl)isothiazol-4-yl)methoxy)-3,5-difluorophenyl)propanoic acid] | 40 | 362
Cc1c(CCC(=O)O)ccc(OCc2c(-c3ccc(F)c(F)c3)nsc2C(F)(F)F)c1C [Cpd 143, 3-(4-((3-(3,4-difluorophenyl)-5-(trifluoromethyl)isothiazol-4-yl)methoxy)-2,3-dimethylphenyl)propanoic acid] | 374 | 156
COc1cccc(-c2nsc(C(F)(F)F)c2COc2c(F)cc(CCC(=O)O)cc2F)c1 [Cpd 94, 3-(3,5-difluoro-4-[[3-(3-methoxyphenyl)-5-(trifluoromethyl)-1,2-thiazol-4-yl]methoxy]phenyl)propanoic acid] | 104 | 71
O=C(O)CCc1cc(F)c(OCc2c(-c3ccc(F)c(F)c3)nsc2C(F)(F)F)c(F)c1 [Cpd 129, 3-(4-((3-(3,4-difluorophenyl)-5-(trifluoromethyl)isothiazol-4-yl)methoxy)-3,5-difluorophenyl)propanoic acid] | 116 | 
COc1ccc(-c2nsc(C(F)(F)F)c2COc2c(F)cc(CCC(=O)O)cc2F)cc1F [Cpd 237, 3-(3,5-difluoro-4-[[3-(3-fluoro-4-methoxyphenyl)-5-(trifluoromethyl)-1,2-thiazol-4-yl]methoxy]phenyl)propanoic acid] | 96 | 
